Experiment [1] deals with bacterial strains that express the class D cephalosporinase OXA-15. Briefly: Synergy MIC / standard BLI potentiation MIC assay, strains expressing OXA-15.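 Further: more active means a lower MIC or sMIC than Avibactam.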 It is filed as cell-based, E. coli. To be noted: in the presence of a β-lactam; comparator Avibactam (CCC). How it is done: (§1) Unless otherwise indicated, the activity of the BLI compounds can be described by the MIC value obtained from a Synergy MIC assay or a BLI potentiation assay (e.g as described herein), both of which are run in the presence of a β-lactam.
(§2) The experimental protocol was performed according to Clinical and Laboratory Standards Institute (CLSI) guidelines with modifications as described below (CLSI guidelines can be derived from the CLSI document M07-A9 published in January 2012: “Methods for Dilution Antimicrobial Susceptibility Tests for Bacteria That Grow Aerobically; Approved Standard-Ninth Edition”).
(§3) To prepare for MIC testing, frozen glycerol stocks of clinical isolates (Klebsiella pneumoniae, Eschericia coli, Enterobacter spp, Citrobacter spp, or Pseudomonas aeruginosa) were used to streak for isolated colonies on rich, non-selective, tryptic soy agar containing 5% sheep's blood (TSAB). Frozen glycerol stocks of laboratory engineered, isogenic E. coli strains, which contain cloned β-lactamase expressing plasmids were used to streak for isolated colonies on rich, selective LB agar supplemented with 25 μg/mL tetracycline to maintain the plasmid. All strains were incubated at 37° C. for 18-24 hrs.
(§4) On the day of testing, primary cultures were started by scraping off 5-10 colonies from the TSAB plates containing clinical strains or the tetracycline supplemented LB plates containing engineered strains. The clinical strain material was suspended in ˜5 mL of cation adjusted Mueller Hinton Broth (CAMHB) in 14 mL culture tubes. The engineered strain material was suspended in CAMHB (supplemented with 25 μg/mL tetracycline) in 14 mL culture tubes. All strains were incubated at 37° C. with aeration (200 rpm) for ˜2 hrs until the optical density at 600 nm (OD600) was ≧0.1.
(§5) The two compound components of the assay were each diluted in CAMHB and added to the 96-well broth microdilution assay plates. 50 μL of the β-lactam was added to each well of the assay plate in 2-fold dilutions with final concentrations ranging from 128 to 0.13 μg/mL. 25 μL of the BLI compound was added to all wells in the broth microdilution plates at a final concentration of 4 μg/mL. Inoculum cultures were prepared by standardizing the primary cultures to OD600=0.1 and then adding 20 μL of the adjusted primary culture per 1 mL CAMHB for clinical strains or CAMHB (supplemented with tetracycline at 100 μg/mL) for engineered strains, so that the final inoculum density was ˜10^5 colony forming units per milliliter. Diluted inoculum cultures were used to inoculate 25 μl, per well in 96-well broth microdilution assay plates. The final volume of each well was 100 μL and contained a β-lactam at different concentrations, a BLIcompound at 4 μg/mL concentration, the bacterial culture at an OD600 of approximately 0.001 and when necessary tetracycline at 25 μg/mL.
(§6) Plates were incubated for 18-20 hours at 37° C. with aeration (200 rpm). Following incubation, growth was confirmed visually placing plates over a viewing apparatus (stand with a mirror underneath) and then OD600 was measured using a SpectraMax 340PC384 plate reader (Molecular Devices, Sunnyvale, Calif.). Growth was defined as turbidity that could be detected with the naked eye or achieving minimum OD600 of 0.1. MIC values were defined as the lowest concentration producing no visible turbidity.
(§7) The synergy MIC (sMIC) assay determines the concentration of the BLI required to potentiate the activity of a fixed concentration of a β-lactam antibiotic against β-lactamase producing bacterial strains. The experimental protocol was performed according to Clinical and Laboratory Standards Institute (CLSI) guidelines with modifications as described below (CLSI guidelines can be derived from the CLSI document M07-A9 published in January 2012: “Methods for Dilution Antimicrobial Susceptibility Tests for Bacteria That Grow Aerobically; Approved Standard-Ninth Edition”). […]

Experiment [2] relates to bacterial strains that express KPC β-lactamases. Briefly: Synergy MIC / standard BLI potentiation MIC assay, strains expressing KPC β-lactamases. It is filed as cell-based. To be noted: for at least one KPC strain and/or a better spectrum of activity against KPC strains than Avibactam; in the presence of a β-lactam. How it is done:
as §1, §2, §3, §4, §5, §6, §7

Molecules are shown by their SMILES. Structures can show the parent of a compound that is named as a salt.

As to `O=C1N2C[C@@H](CC[C@H]2c2nnc(C3CCNCC3)o2)N1OS(=O)(=O)O` [Compound 711, (2S,5R)-7-oxo-2-(5-(piperidin-4-yl)-1,3,4-oxadiazol-2-yl)-1,6-diazabicyclo[3.2.1]octan-6-yl hydrogen sulfate], the “activity against bacterial strains that express OXA-15 β-lactamase compared with Avibactam” value in experiment [1] is on record as “more active than Avibactam”. Besides, in experiment [2], the “activity against bacterial strains that express KPC β-lactamase compared with Avibactam” value was “more active than Avibactam”.

Turning to `N[C@H]1C[C@H](c2nnc([C@@H]3CC[C@@H]4CN3C(=O)N4OS(=O)(=O)O)s2)C1` [Compound 783, (2S,5R)-2-(5-((1r,3S)-3-aminocyclobutyl)-1,3,4-thiadiazol-2-yl)-7-oxo-1,6-diazabicyclo[3.2.1]octan-6-yl hydrogen sulfate], the “activity against bacterial strains that express OXA-15 β-lactamase compared with Avibactam” value in experiment [1] was “more active than Avibactam”. The “activity against bacterial strains that express KPC β-lactamase compared with Avibactam” value in experiment [2] is listed as “more active than Avibactam”.

For `CNCCc1nnc([C@@H]2CC[C@@H]3CN2C(=O)N3OS(=O)(=O)O)o1` [Compound 722, (2S,5R)-2-(5-(2-(methylamino)ethyl)-1,3,4-oxadiazol-2-yl)-7-oxo-1,6-diazabicyclo[3.2.1]octan-6-yl hydrogen sulfate], in experiment [1], the “activity against bacterial strains that express OXA-15 β-lactamase compared with Avibactam” value is given as “more active than Avibactam”. In addition, the “activity against bacterial strains that express KPC β-lactamase compared with Avibactam” value in experiment [2] is “more active than Avibactam”.

Take `O=C1N2C[C@@H](CC[C@H]2c2nnc([C@@H]3CCNC3)o2)N1OS(=O)(=O)O` [Compound 759, (2S,5R)-7-oxo-2-(5-((R)-pyrrolidin-3-yl)-1,3,4-oxadiazol-2-yl)-1,6-diazabicyclo[3.2.1]octan-6-yl hydrogen sulfate]: the “activity against bacterial strains that express OXA-15 β-lactamase compared with Avibactam” value in experiment [1] is given as “more active than Avibactam”. In experiment [2], the “activity against bacterial strains that express KPC β-lactamase compared with Avibactam” value is on record as “more active than Avibactam”.

As to `N=C(N)NCC(O)Cc1nnc([C@@H]2CC[C@@H]3CN2C(=O)N3OS(=O)(=O)O)o1` (stereo partly drawn) [Compound 730, (2S,5R)-2-(5-(3-guanidino-2-hydroxypropyl)-1,3,4-oxadiazol-2-yl)-7-oxo-1,6-diazabicyclo[3.2.1]octan-6-yl hydrogen sulfate], the “activity against bacterial strains that express OXA-15 β-lactamase compared with Avibactam” value in experiment [1] was “more active than Avibactam”. Besides, the “activity against bacterial strains that express KPC β-lactamase compared with Avibactam” value in experiment [2] is listed as “more active than Avibactam”.

In the case of `N[C@H]1C[C@@H](c2nnc([C@@H]3CC[C@@H]4CN3C(=O)N4OS(=O)(=O)O)s2)C1` [Compound 795, (2S,5R)-2-(5-((1s,3R)-3-aminocyclobutyl)-1,3,4-thiadiazol-2-yl)-7-oxo-1,6-diazabicyclo[3.2.1]octan-6-yl hydrogen sulfate], in experiment [1], the “activity against bacterial strains that express OXA-15 β-lactamase compared with Avibactam” value is listed as “more active than Avibactam”. Also, in experiment [2], the “activity against bacterial strains that express KPC β-lactamase compared with Avibactam” value is “more active than Avibactam”.

Regarding `O=C1N2C[C@@H](CC[C@H]2c2nnc(CCNCCO)o2)N1OS(=O)(=O)O` [Compound 736, (2S,5R)-2-(5-(2-((2-hydroxyethyl)amino)ethyl)-1,3,4-oxadiazol-2-yl)-7-oxo-1,6-diazabicyclo[3.2.1]octan-6-yl hydrogen sulfate], in experiment [1], the “activity against bacterial strains that express OXA-15 β-lactamase compared with Avibactam” value is reported as “more active than Avibactam”. Moreover, the “activity against bacterial strains that express KPC β-lactamase compared with Avibactam” value in experiment [2] was “more active than Avibactam”.

Take `N=C1NCC(c2nnc([C@@H]3CC[C@@H]4CN3C(=O)N4OS(=O)(=O)O)o2)N1` (stereo partly drawn) [Compound 767, (2S,5R)-2-(5-(2-iminoimidazolidin-4-yl)-1,3,4-oxadiazol-2-yl)-7-oxo-1,6-diazabicyclo[3.2.1]octan-6-yl hydrogen sulfate]: the “activity against bacterial strains that express OXA-15 β-lactamase compared with Avibactam” value in experiment [1] was “more active than Avibactam”. The “activity against bacterial strains that express KPC β-lactamase compared with Avibactam” value in experiment [2] was “more active than Avibactam”.

As for `N[C@H]1C[C@@H](NCc2nnc([C@@H]3CC[C@@H]4CN3C(=O)N4OS(=O)(=O)O)o2)C1` [Compound 756, (2S,5R)-2-(5-((((1s,3R)-3-aminocyclobutyl)amino)methyl)-1,3,4-oxadiazol-2-yl)-7-oxo-1,6-diazabicyclo[3.2.1]octan-6-yl hydrogen sulfate], the “activity against bacterial strains that express OXA-15 β-lactamase compared with Avibactam” value in experiment [1] is recorded as “more active than Avibactam”. In experiment [2], the “activity against bacterial strains that express KPC β-lactamase compared with Avibactam” value is “more active than Avibactam”.

In the case of `NC1CCN(Cc2nnc([C@@H]3CC[C@@H]4CN3C(=O)N4OS(=O)(=O)O)o2)CC1` [Compound 774, (2S,5R)-2-(5-((4-aminopiperidin-1-yl)methyl)-1,3,4-oxadiazol-2-yl)-7-oxo-1,6-diazabicyclo[3.2.1]octan-6-yl hydrogen sulfate], the “activity against bacterial strains that express OXA-15 β-lactamase compared with Avibactam” value in experiment [1] is reported as “more active than Avibactam”. For the same compound, the “activity against bacterial strains that express KPC β-lactamase compared with Avibactam” value in experiment [2] is given as “more active than Avibactam”.

On to `O=C1N2C[C@@H](CC[C@H]2c2nnc(CCNC3CCNCC3)o2)N1OS(=O)(=O)O` [Compound 770, (2S,5R)-7-oxo-2-(5-(2-(piperidin-4-ylamino)ethyl)-1,3,4-oxadiazol-2-yl)-1,6-diazabicyclo[3.2.1]octan-6-yl hydrogen sulfate], for which, in experiment [1], the “activity against bacterial strains that express OXA-15 β-lactamase compared with Avibactam” value is recorded as “more active than Avibactam”. For the same compound, in experiment [2], the “activity against bacterial strains that express KPC β-lactamase compared with Avibactam” value is on record as “more active than Avibactam”.

For `O=C1N2C[C@@H](CC[C@H]2c2nnc(CN3CCNCC3)o2)N1OS(=O)(=O)O` [Compound 777, (2S,5R)-7-oxo-2-(5-(piperazin-1-ylmethyl)-1,3,4-oxadiazol-2-yl)-1,6-diazabicyclo[3.2.1]octan-6-yl hydrogen sulfate], in experiment [1], the “activity against bacterial strains that express OXA-15 β-lactamase compared with Avibactam” value is on record as “more active than Avibactam”. For the same compound, in experiment [2], the “activity against bacterial strains that express KPC β-lactamase compared with Avibactam” value is on record as “more active than Avibactam”.

Take `N[C@H]1C[C@@H](CCc2nnc([C@@H]3CC[C@@H]4CN3C(=O)N4OS(=O)(=O)O)o2)C1` [Compound 754, (2S,5R)-2-(5-(2-((1s,3S)-3-aminocyclobutyl)ethyl)-1,3,4-oxadiazol-2-yl)-7-oxo-1,6-diazabicyclo[3.2.1]octan-6-yl hydrogen sulfate]: in experiment [1], the “activity against bacterial strains that express OXA-15 β-lactamase compared with Avibactam” value is “more active than Avibactam”. Moreover, in experiment [2], the “activity against bacterial strains that express KPC β-lactamase compared with Avibactam” value was “more active than Avibactam”.

For the compound `CC(C)(N)Cc1nnc([C@@H]2CC[C@@H]3CN2C(=O)N3OS(=O)(=O)O)o1` [Compound 737, (2S,5R)-2-(5-(2-amino-2-methylpropyl)-1,3,4-oxadiazol-2-yl)-7-oxo-1,6-diazabicyclo[3.2.1]octan-6-yl hydrogen sulfate], the “activity against bacterial strains that express OXA-15 β-lactamase compared with Avibactam” value in experiment [1] is recorded as “more active than Avibactam”. Besides, in experiment [2], the “activity against bacterial strains that express KPC β-lactamase compared with Avibactam” value is “more active than Avibactam”.

In the case of `NC1CCN(CCc2nnc([C@@H]3CC[C@@H]4CN3C(=O)N4OS(=O)(=O)O)o2)CC1` [Compound 775, (2S,5R)-2-(5-(2-(4-aminopiperidin-1-yl)ethyl)-1,3,4-oxadiazol-2-yl)-7-oxo-1,6-diazabicyclo[3.2.1]octan-6-yl hydrogen sulfate], the “activity against bacterial strains that express KPC β-lactamase compared with Avibactam” value in experiment [2] is on record as “more active than Avibactam”.

These data come from patent publication US8940897B2, “1,3,4-oxadiazole and 1,3,4-thiadiazole β-lactamase inhibitors” (priority 2012, dated 2015).
